According to patent US5143918A, “Halomacrolides and derivatives having immunosuppressive activity” (Merck & Co., Inc., priority 1991, dated 1992):
Like-named read-outs stand apart in the source and are kept apart here.

Legend:
[1] = tested on: T lymphocytes (T-cells); assay: T-Cell Proliferation Assay (tritiated thymidine uptake); type: cell-based, C57B1/6 mice; details: mouse spleen T lymphocytes, ionomycin 250 ng/ml and PMA 10 ng/ml, 44 h culture + 4 h tritiated thymidine, read-out: IC50 (concentration of compound required to inhibit tritiated thymidine uptake / proliferation of T-cells by 50%)
Protocol: T-Cell Proliferation Assay
The compounds to be assayed were dissolved in absolute ethanol at 1 mg/ml.
Spleens from C57B1/6 mice were taken under sterile conditions and gently dissociated in ice-cold RPMI 1640 culture medium (GIBC), Grand Island, N.Y.) supplemented with 10% heat-inactivated fetal calf serum (GIBO)). Cells were pelleted by centrifugation at 1500 rpm for 8 minutes. Contaminating red cells were removed by treating the pellet with ammonium chloride lysing buffer (GIBO)) for 2 minutes at 4° C. Cold medium was added and cells were again centrifuged at 1500 rpm for 8 minutes. T lymphocytes were then isolated by separation of the cell suspension on nylon wool columns as follows: Nylon wool columns were prepared by packing approximately 4 grams of washed and dried nylon wool into 20 ml plastic syringes. The columns were sterilized by autoclaving at […]. for 30 minutes. Nylon wool columns were wetted with warm (37° C.) culture medium and rinsed with the same medium. Washed spleen cells resuspened in warm medium were slowly applied to the nylon wool. The columns were then incubated in an upright position at 37° C. for 1 hour. Non-adherent T lymphocytes were eluted from the columns with warm culture medium and the cell suspensions were spun as above.
Purified T lymphocytes were resuspended at 2.5×10^5 cells/ml in complete culture medium composed of RPMI 1640 medium with 10% heat-inactivated fetal calf serum, […], 1 mM sodium pyruvate, 2×10^-5 M 2-mercaptoethanol and 50 μg/ml gentamycin. Ionomycin was added at 250 ng/ml and PMA at 10 ng/ml. The cell suspension was immediately distributed into 96 well flat-bottom microculture plates (Costar) at 200 μl/well. The various dilutions of the compound to be tested were then added in triplicate wells at 20 ul/well. The compound 17-allyl-1,14-dihydroxy-12-[2'-(4"-hydroxy-3"-methoxycyclohexyl)-1'-methylvinyl]-23,25-dimethoxy-13,19,21,27-tetramethyl-11,28-dioxa-4-azatricyclo[22.3.1.0^4,9 ]octacos-18-ene-2,3,10,16-tetraone was used as a standard. The culture plates were then incubated at 37° C. in a humidified atmosphere of 5% CO2 -95% air for 44 hours. The proliferation of T lymphocytes was assessed by measurement of tritiated thymidine incorporation. After 44 hours of culturing, the cells were pulse-labelled with 2 μCi/well of tritiated thymidine (NEN, Cambridge, Mass.). After another 4 hours of incubation, cultures were harvested on glass fiber filters using a multiple sample harvester. Radio activity of filter discs corresponding to individual wells was measured by standard liquid scintillation counting methods (Betacounter). Mean counts per minute of replicate wells were calculated and the results expressed as concentration of compound required to inhibit tritiated thymidine uptake of T-cells by 50%.
A selection of compounds were tested according to the previous procedure. The concentration of compound required to inhibit the proliferation of T-cells by 50% was measured, and the results were as follows: […]

[2] = tested on: in vitro immune systems; details: versus cyclosporin; J. Antibiotics 1987, 40, 1256; cited from earlier work

| Molecule | IC50 ([1]; T-cell) | other results |
| --- | --- | --- |
| CCC1C=C(C)CC(C)CC(OC)C2OC(O)(C(=O)C(=O)N3CCCCC3C(=O)OC(C(C)=CC3CCC(F)C(OC)C3)C(C)C(O)CC1=O)C(C)CC2OC (centres unmarked) [Example 62, 17-Ethyl-1,14-dihydroxy-12-[2'-(4"-fluoro-3"-methoxycyclohexyl)-1'-methylvinyl]-23,25-dimethoxy-13,19,21,27-tetramethyl-11,28-dioxa-4-azatricyclo-[22.3.1.0^4,9]octacos-18-ene-2,3,10,16-tetraone] | < 1000 nM |  |
| CCC1C=C(C)CC(C)CC(OC)C2OC(O)(C(=O)C(=O)N3CCCCC3C(=O)OC(C(C)=CC3CCC(Br)C(OC)C3)C(C)C(O)CC1=O)C(C)CC2OC (stereo not drawn) [Example 56, 17-Ethyl-1,14-dihydroxy-12-[2'-(4"-beta-bromo-3"-methoxycyclohexyl)-1'-methylvinyl]-23,25-dimethoxy-13,19,21,27-tetramethyl-11,28-dioxa-4-azatricyclo[22.3.1.0^4,9]octacos-18-ene-2,3,10,16-tetraone] | < 1000 nM |  |
| CCC1C=C(C)CC(C)CC(OC)C2OC(O)(C(=O)C(=O)N3CCCCC3C(=O)OC(C(C)=CC3CCC(Cl)C(OC)C3)C(C)CCC1=O)C(C)CC2OC (stereo not drawn) [Example 40, 17-Ethyl-1-hydroxy-12-[2'-(4"-beta-chloro-3"-methoxycyclohexyl)-1'-methylvinyl]-23,25-dimethoxy-13,19,21,27-tetramethyl-11,28-dioxa-4-azatricyclo-[22.3.1.0^4,9]octacos-18-ene-2,3,10,16-tetraone] | < 1000 nM |  |
| CCC1C=C(C)CC(C)CC(OC)C2OC(O)(C(=O)C(=O)N3CCCCC3C(=O)OC(C(C)=CC3CCC(I)C(OC)C3)C(C)C(O)CC1=O)C(C)CC2OC (stereo not drawn) [Example 59, 17-Ethyl-1,14-dihydroxy-12-[2'-(4"-beta-iodo-3"-methoxycyclohexyl)-1'-methylvinyl]-23,25-dimethoxy-13,19,21,27-tetramethyl-11,28-dioxa-4-azatricyclo-[22.3.1.0^4,9]octacos-18-ene-2,3,10,16-tetraone] |  | IC50 [1]: < 1000 nM |
| 17-Ethyl-1-hydroxy-12-[2'-(3"-chloro-4"-hydroxycyclohexyl)-1'-methylvinyl]- 23,25-dimethoxy-13,19,21,27-tetramethyl-11,28-dioxa-4-azatricyclo[22.3.1.0^4,9 ]octacos-18-ene-2,3,10,16-tetraone [Example 87] |  | IC50 [1]: < 1000 nM |
| C=CCC1C=C(C)CC(C)CC(OC)C2OC(O)(C(=O)C(=O)N3CCCCC3C(=O)OC(C(C)=CC3CCC(O)C(OC)C3)C(C)C(O)CC1=O)C(C)CC2OC (centres unmarked) [FR-900506, 17-allyl-1,14-dihydroxy-12-[2'-(4"-hydroxy-3"-methoxycyclohexyl)-1'-methylvinyl]-23,25-dimethoxy-13,19,21,27-tetramethyl-11,28-dioxa-4-azatricyclo-[22.3.1.0^4,9]octacos-18-ene-2,3,10,16-tetraone] |  | times more effective than cyclosporin in the suppression of in vitro immune systems [2]: 100 times |
| CCC1C=C(C)CC(C)CC(OC)C2OC(O)(C(=O)C(=O)N3CCCCC3C(=O)OC(C(C)=CC3CCC(O)C(Br)C3)C(C)CCC1=O)C(C)CC2OC (centres unmarked) [Example 89, 17-Ethyl-1-hydroxy-12-[2'-(3"-bromo-4"-hydroxycyclohexyl)-1'-methylvinyl]-23,25-dimethoxy-13,19,21,27-tetramethyl-11,28-dioxa-4-azatricyclo[22.3.1.0^4,9]octacos-18-ene-2,3,10,16-tetraone] | < 1000 nM |  |
| CCC1C=C(C)CC(C)CC(OC)C2OC(O)(C(=O)C(=O)N3CCCCC3C(=O)OC(C(C)=CC3CCC(Cl)C(OC)C3)C(C)C(O)CC1=O)C(C)CC2OC (stereo not drawn) [Example 53, 17-Ethyl-1,14-dihydroxy-12-[2'-(4"-beta-chloro-3"-methoxycyclohexyl)-1'-methylvinyl]-23,25-dimethoxy-13,19,21,27-tetramethyl-11,28-dioxa-4-azatricyclo[22.3.1.0^4,9]octacos-18-ene-2,3,10,16-tetraone] | < 1000 nM |  |
